The text below walks through data of patent US9260419B2, “Polymorphic salt of a metap-2 inhibitor and methods of making and using same” (Zafgen, Inc., priority 2012, dated 2016).

Structures can show the parent of a compound that is named as a salt.

Data set [1] can be described thus: challenge stability study, stability-indicating HPLC assay and physical description. It counts as physicochemical. To be noted: sealed vials. As for the experimental part:
A challenge stability study was carried out with amorphous and crystalline forms. Samples were stored in sealed vials and stored at room temperature (25° C.) and 40° C. Samples were assayed at various times with a stability-indicating HPLC assay. Retained potency was determined and physical description was observed.

A short description of data set [2]: relative stability of crystalline forms. Type of data set: physicochemical.
Where [3] appears, read: 25° C., 8 days, hemioxalate salt.
The mark [4] stands for this setting: 25° C., 12 days, hemioxalate salt.
[5] abbreviates: 40° C., 5 days, hemioxalate salt.

As to `CO[C@@H]1[C@H](OC(=O)/C=C/c2ccc(OCCN(C)C)cc2)CCC2(CO2)[C@H]1C1(C)OC1CC=C(C)C` (some centres unmarked) [Amorphous, 6-O-(4-dimethylaminoethoxy)cinnamoyl fumagillol hemioxalate salt], the “% Purity (by peak area)” value in data set [1] (setting [3]) is reported as 86.58%; in data set [1] (setting [4]) it was 83.88%; in data set [1] (setting [5]), 86.91%; in data set [1] (Time zero, hemioxalate salt) it was 94.98%. In addition, the “Physical Description” value was “White powder” in data set [1] (setting [3]), “White powder” in data set [1] (setting [4]), “White powder” in data set [1] (setting [5]) and “Free flowing” in data set [1] (Time zero).
Turning to `CO[C@@H]1[C@H](OC(=O)/C=C/c2ccc(OCCN(C)C)cc2)CCC2(CO2)[C@H]1C1(C)OC1CC=C(C)C` (some centres unmarked) [Form B, 6-O-(4-dimethylaminoethoxy)cinnamoyl fumagillol hemioxalate], the “stability relative to Form A” value in data set [2] was “metastable relative to Form A”.
Take `CO[C@@H]1[C@H](OC(=O)/C=C/c2ccc(OCCN(C)C)cc2)CCC2(CO2)[C@H]1C1(C)OC1CC=C(C)C` (some centres unmarked) [Crystalline, 6-O-(4-dimethylaminoethoxy)cinnamoyl fumagillol hemioxalate salt]: the “% Purity (by peak area)” value is listed as 97.86% in data set [1] (setting [3]); 97.84% in data set [1] (setting [4]); 97.72% in data set [1] (setting [5]); 97.91% in data set [1] (Time zero, hemioxalate salt). In addition, the “Physical Description” value in data set [1] (setting [3]), in data set [1] (setting [4]), in data set [1] (setting [5]) and in data set [1] (Time zero) was “Free flowing” throughout.
